≈ marks a conversion by molar mass, not a printed value.
Experiments:
[1] = Solubility of NRC-AN-019 (aqueous at physiological pH; organic solvents); format: physicochemical
From the text: Its molecular formula is C25H17F6N5O and its relative molecular mass is 517.44.
It is soluble in dimethylformamide, dimethylacetamide and dimethyl sulfoxide. NRC-AN-019 presents specific difficulties in relation to solubility and its formulation development. Oral absorption of such insoluble drugs is the key point to be considered in solving the problem of low bioavailability.

[2] = Oral gavage pharmacokinetics (suspension) in albino wistar rats; details: rat, in vivo, oral gavage 40 mg/kg·bw
From the text: FIG. 1 illustrates the area under the curve in albino wistar rats after oral administration of NRC-AN-019 “as is” and different solid dispersions in accordance with the invention.
The study discloses better bioavailability characteristics of NRC-AN-019 in the formulation of the present invention than NRC-AN-019 as such. Thus, the optimum bioavailability can be achieved for the therapeutic effectiveness of NRC-AN-019. The maximum concentration and AUC of the formulation of the present invention are substantially higher than that of NRC-AN-019 “as is” due to better absorption characteristics of the solid dispersion of NRC-AN-019 in amorphous or, partially amorphous or, crystalline form. The details of the process of the invention are provided in the examples given below which is provided by way of illustration only and therefore should not be construed to limit the scope of the invention. The preparation of the present invention that can be administered by the oral route is carried out according to the following process.
NRC-AN-019 active pharmaceutical ingredient (API) and the compositions of the present invention were administered through oral gavage at 40 mg/kg·bw in the form of a suspension in albino wistar rats. […] The Cmax and AUC0-∞ for the compositions of the present invention vary between 900 ng/mL to 2000 ng/mL and 7500 ng·hr/mL to 16000 ng·hr/mL respectively.

solubility ([1]; aqueous medium at pH 1.2 (buffer not named), pH 1.2, simulated gastric fluid): 6.6 µg/mL (≈ 12.8 µM)
solubility ([1]; aqueous medium at pH 2.0 (buffer not named), pH 2, simulated gastric fluid): 0.2 µg/mL (≈ 0.387 µM)
solubility in organic solvents ([1]; dimethylformamide, dimethylacetamide and dimethyl sulfoxide): soluble
aqueous solubility ([1]; pH 3.0, 4.0, 5.0, 6.0, 6.8, 7.0, 7.5, 8.0 and water): below detection limit
solubility in water ([1]; water): practically insoluble
Cmax [2]: 33.7 ng/mL
AUC(0-inf) ([2]; read-out: average AUC0-∞): 453 ng·h/mL
SMILES: Cc1ccc(NC(=O)c2cc(C(F)(F)F)cc(C(F)(F)F)c2)cc1Nc1nccc(-c2cccnc2)n1 [NRC-AN-019, (3,5-Bis trifluoromethyl)-N-[4-methyl-3-(4-pyridin-3-yl-pyrimidin-2-yl-amino)phenyl]benzamide]

Reference: patent US10383872B2, “Pharmaceutical compositions comprising phenylaminopyrimidine derivative” (priority 2015, dated 2019)
